Measured values as given in patent publication US20020183256A1, “Cytostatic-integrin conjugates having specifically cleavable linking units” (priority 2000, published 2002).
pIC50: −log10 of the molar value. Like-named read-outs stand apart in the source and are kept apart here. *1 amine or outer side, *2 acyl side, *3 side chain or, on linkers, in order; H or OH if unused. Where a SMILES comes first, the peptide text is derived from it. [ ]: non-standard residue; d: D form. The star is where a group is joined. Camptothecin(20R,20-O) = CC[C@]1(O*)C(=O)OCc2c1cc1n(c2=O)Cc2cc3ccccc3nc2-1; X1 = CCCNC(=O)Nc1cccc(S(=O)(=O)Nc2cccc(C(CC(=O)O)N*)c2)c1; NH(1,4-C6H4)NHCS = S=C(Nc1ccc(N[*:1])cc1)[*:2]; CO = O=C([*:1])[*:2]; GABA = NCCCC(=O)O

Experiments:
αvβ3 receptor = biological target: T1, αvβ3 receptor (Homo sapiens, UniProt P05106+P06756); experiment: αvβ3 binding test (echistatin displacement, WGA SPA beads); settings: αvβ3 from human A375 cells
T1 construct: αvβ3 from human A375 cells was purified; endogenous in cells; host or cells: human A375 cells (receptor purified from the cells, analogous to Wong et al. 1996)
T1 sequence (P06756 31-889 limits assumed): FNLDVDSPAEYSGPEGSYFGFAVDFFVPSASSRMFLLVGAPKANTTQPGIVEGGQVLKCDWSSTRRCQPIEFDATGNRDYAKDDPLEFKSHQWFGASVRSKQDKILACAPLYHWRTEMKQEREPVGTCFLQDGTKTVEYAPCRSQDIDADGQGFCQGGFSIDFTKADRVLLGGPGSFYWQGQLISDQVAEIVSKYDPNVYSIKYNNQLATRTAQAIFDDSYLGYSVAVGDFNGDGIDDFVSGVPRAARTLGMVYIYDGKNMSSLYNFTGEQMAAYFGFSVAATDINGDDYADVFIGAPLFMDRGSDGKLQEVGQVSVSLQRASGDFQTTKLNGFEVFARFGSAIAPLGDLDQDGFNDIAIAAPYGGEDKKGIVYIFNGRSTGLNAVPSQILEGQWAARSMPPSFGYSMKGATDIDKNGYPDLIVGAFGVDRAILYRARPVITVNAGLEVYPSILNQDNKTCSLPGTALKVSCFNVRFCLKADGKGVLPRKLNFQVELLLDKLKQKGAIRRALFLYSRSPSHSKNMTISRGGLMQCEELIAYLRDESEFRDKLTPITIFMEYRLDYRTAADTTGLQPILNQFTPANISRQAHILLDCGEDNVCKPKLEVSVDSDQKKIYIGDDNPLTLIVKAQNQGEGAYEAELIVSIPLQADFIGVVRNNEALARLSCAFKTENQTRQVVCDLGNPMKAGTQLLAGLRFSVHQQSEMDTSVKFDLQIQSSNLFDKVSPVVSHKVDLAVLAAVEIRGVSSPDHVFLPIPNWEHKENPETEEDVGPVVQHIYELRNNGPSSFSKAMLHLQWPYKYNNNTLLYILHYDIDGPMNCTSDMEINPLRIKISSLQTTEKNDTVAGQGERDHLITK
T1 sequence (P06756 891-1048 partner limits assumed): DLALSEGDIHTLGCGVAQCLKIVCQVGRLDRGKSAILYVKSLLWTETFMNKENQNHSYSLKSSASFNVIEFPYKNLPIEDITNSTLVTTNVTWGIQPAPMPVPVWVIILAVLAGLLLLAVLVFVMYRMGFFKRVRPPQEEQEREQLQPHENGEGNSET
T1 sequence (P05106 27-788): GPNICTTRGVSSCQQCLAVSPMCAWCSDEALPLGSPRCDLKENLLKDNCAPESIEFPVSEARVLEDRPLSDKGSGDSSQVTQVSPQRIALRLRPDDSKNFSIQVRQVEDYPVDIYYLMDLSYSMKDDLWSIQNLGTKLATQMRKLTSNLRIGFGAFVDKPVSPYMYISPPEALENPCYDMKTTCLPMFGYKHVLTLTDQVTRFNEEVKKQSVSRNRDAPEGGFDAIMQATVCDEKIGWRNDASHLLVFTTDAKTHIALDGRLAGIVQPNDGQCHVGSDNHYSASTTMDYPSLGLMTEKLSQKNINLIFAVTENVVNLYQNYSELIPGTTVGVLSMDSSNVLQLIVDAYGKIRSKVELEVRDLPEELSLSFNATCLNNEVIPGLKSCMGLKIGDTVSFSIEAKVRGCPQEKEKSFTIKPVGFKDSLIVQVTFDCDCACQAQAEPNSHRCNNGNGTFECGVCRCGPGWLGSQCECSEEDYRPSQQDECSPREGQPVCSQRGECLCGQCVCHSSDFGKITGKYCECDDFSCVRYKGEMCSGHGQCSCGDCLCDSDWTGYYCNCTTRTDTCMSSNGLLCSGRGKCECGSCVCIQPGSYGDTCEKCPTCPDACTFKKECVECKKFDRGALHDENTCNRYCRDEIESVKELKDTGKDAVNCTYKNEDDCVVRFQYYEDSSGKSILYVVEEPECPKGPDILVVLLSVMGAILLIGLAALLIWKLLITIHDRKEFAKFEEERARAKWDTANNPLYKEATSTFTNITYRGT

HT29 = experiment: Growth inhibition test (MTT), cytotoxic action on tumour cell lines; assay type: cell-based, human
How it was run: (§1)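 Cells seeded at 50,000/ml (B16F10 20,000/ml) in RPMI + 10% FCS, grown 1 day at 37 °C, then compound added in DMSO. Growth read on day 6 by MTT (5 h, 37 °C), isopropanol solubilisation, extinction at 595 nm; IC50 reported per line.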

SW 480 = experiment: as above; assay type: cell-based, human
How it was run: as §1

B16F10 = experiment: as above; assay type: cell-based, mouse
How it was run: as §1

hemopoietic stem cells = experiment: CSF-induced proliferation of hemopoietic stem cells (colony formation); assay type: cell-based, mice; settings: murine bone marrow cells, GM-CSF, 7 days
Protocol: Bone marrow cells are flushed out of the femur of mice. 10^5 cells are incubated in McCoy 5A medium (0.3% agar) together with recombinant murine GM-CSF (Genzyme; parent cell colony formation) and the substances (10^−4 to 100 μg/ml) at 37° C. and 7% CO2. 7 days later, the colonies […] and clusters (17-50 cells) are counted.

MMP-2 = biological target: T2, MMP-2 (Homo sapiens, UniProt P08253); experiment: Cleavage of conjugates by MMP-2 in buffer (HPLC); assay type: biochemical; settings: after 6 h incubation with MMP-2; buffer pH 7.5
T2 construct: purchased Calbiochem
T2 sequence (P08253 110-660): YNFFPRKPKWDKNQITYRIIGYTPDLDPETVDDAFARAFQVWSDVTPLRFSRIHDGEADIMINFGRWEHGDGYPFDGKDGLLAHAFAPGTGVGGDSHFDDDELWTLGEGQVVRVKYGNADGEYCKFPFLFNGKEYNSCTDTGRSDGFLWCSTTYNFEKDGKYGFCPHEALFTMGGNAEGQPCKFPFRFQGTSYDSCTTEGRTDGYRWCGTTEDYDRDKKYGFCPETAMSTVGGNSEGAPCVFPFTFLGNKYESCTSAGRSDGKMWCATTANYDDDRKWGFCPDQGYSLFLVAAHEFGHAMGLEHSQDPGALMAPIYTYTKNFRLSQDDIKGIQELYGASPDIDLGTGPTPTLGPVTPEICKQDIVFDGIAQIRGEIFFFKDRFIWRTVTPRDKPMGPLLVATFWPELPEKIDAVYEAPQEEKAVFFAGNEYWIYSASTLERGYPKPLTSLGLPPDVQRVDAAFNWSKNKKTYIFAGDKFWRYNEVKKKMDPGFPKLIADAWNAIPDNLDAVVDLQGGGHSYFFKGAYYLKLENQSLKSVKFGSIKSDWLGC
Protocol: 2.5 μl MMP-2 (Calbiochem) with a specific activity of 60 μU/μl are incubated with 10 nM of the conjugates exemplified in the example series 1-25 in 1 ml of a medium consisting of 50 mM Tris-HCl pH 7.5, 0.2 M NaCl, 10 mM CaCL2*2H2O and 0.05% Brij 35. The enzyme mediated cleavage of the conjugates is detected by HPLC analysis using an RP18 (5 μM) column with 70% HClO4/water (0.4% v/v) as eluent A and acentonitrile as eluent B (UV detection at […]). The efficiency of the cleavage is assessed by comparing the peak areas of the intact conjugate (starting material) and the cleavage product (tripeptide conjugate of camptothecin) after 6 h and 24 h incubation (cf. Table 5).

Row | SMILES | pIC50 (αvβ3 receptor; read-out: IC50 values of the binding to the αvβ3 receptor) | pIC50 (HT29; human, 6 days) | pIC50 (SW 480; human, 6 days) | pIC50 (B16F10; mouse, 6 days) | IC50 values of the inhibition of colony formation of hemopoietic stem cells (hemopoietic stem cells) | MMP-2 mediated cleavage Peak area product/educt x100 (MMP-2) | IC50 values of the binding to the αvβ3 receptor (αvβ3 receptor) | pIC50 (HT29; HT29, MTT after day 6, read-out: IC50 values of the cytotoxic action on tumour cell lines, HT29) | pIC50 (SW 480; SW480, MTT after day 6, read-out: IC50 values of the cytotoxic action on tumour cell lines, SW480) | pIC50 (B16F10; B16F10, MTT after day 6, read-out: IC50 values of the cytotoxic action on tumour cell lines, B16F10)
1 | CCCNC(=O)Nc1cccc(S(=O)(=O)Nc2cccc(C(CC(=O)O)NC(=O)Nc3ccc(NC(=S)N4CCC[C@@H]4C(=O)N[C@@H](CC(C)C)C(=O)NCC(=O)N[C@H](CC(C)C)C(=O)N[C@H](Cc4c[nH]cn4)C(=O)N[C@@H](C(=O)O[C@@]4(CC)C(=O)OCc5c4cc4n(c5=O)Cc5cc6ccccc6nc5-4)C(C)C)cc3)c2)c1 (some centres unmarked) [Example 1] | 7.40 | 7.30 | 7.15 | 6.60 | 0.03 µg/mL | 17 |  |  |  | 
2 | CCCNC(=O)Nc1cccc(S(=O)(=O)Nc2cccc(C(CC(=O)O)NC(=O)Nc3ccc(NC(=S)NCCCC(=O)N4CCC[C@@H]4C(=O)N[C@@H](CC(C)C)C(=O)NCC(=O)N[C@H](CC(C)C)C(=O)N[C@H](Cc4c[nH]cn4)C(=O)N[C@@H](C(=O)O[C@@]4(CC)C(=O)OCc5c4cc4n(c5=O)Cc5cc6ccccc6nc5-4)C(C)C)cc3)c2)c1 (stereo partly drawn) [Example 16] ({X1-CO}-[NH(1,4-C6H4)NHCS][GABA][dP]LG[dL][dH][dV]-{Camptothecin(20R,20-O)}) |  |  |  |  | 0.015 µg/mL |  | nix | 7.60 | 7.40 | 7.30
